This note sets out measurements from US6548552B1 (priority 1997, dated 2003).

Some test systems named below: S. aureus; Prevotella bivia; Vaginal Microflora.
Holding throughout (assay type): cell-based
Test [1] has as its system TSST-1 production by S. aureus.
The test system of test [2] is Peptostreptococcus anaerobius.

Consider `O=C1O[C@H]([C@@H](O)CO)C(O)=C1O` [Ascorbic acid, ascorbic acid], for which, in test [1], the “effect on bacterial toxin production (in words)” value (“effect” below) was “reduced toxin production” and the “reduction of toxin production” value is on record as “up to 40%”. In addition, in the test on S. aureus, the “OD540 (Percentage of Control)” value was 104 Percentage of Control and the “Staphylococcal / bacterial growth (inhibition, in words)” value is listed as “does not inhibit Staphylococcal growth”.

For the compound `OCC(O)CO` [glycerin], the “growth of P. bivia” value in the test on Prevotella bivia is “inhibited”. Moreover, the “growth of the isolates tested” value with Vaginal Microflora is recorded as “did not effect the growth”.

On to thiodipropionic acid, for which, in the test on S. aureus, the “OD540 (Percentage of Control)” value was 99 Percentage of Control.

Turning to `N[C@@H](CS)C(=O)O` [Cysteine, cysteine], the “effect” value in test [1] was “reduced toxin production”. In addition, the “OD540 (Percentage of Control)” value in the test with S. aureus is on record as 105 Percentage of Control.

For delta-tocopherol, in the test with S. aureus, the “OD540 (Percentage of Control)” value is reported as 112 Percentage of Control.

For the compound `CCCOC(=O)c1cc(O)c(O)c(O)c1` [Propylgallate, propyl gallate], the “OD540 (Percentage of Control)” value with S. aureus is on record as 74 Percentage of Control.

For the compound `Cn1c(=O)c2c(ncn2C)n(C)c1=O` [Caffeine, caffeine], in test [1], the “effect” value is given as “reduced toxin production”. Moreover, the “OD540 (Percentage of Control)” value with S. aureus is 93 Percentage of Control.

Consider `CC(=O)N[C@@H](CS)C(=O)O` [N-acetyl cysteine, N-acetylcysteine], for which the “effect” value in test [1] is given as “reduced toxin production”. Besides, the “OD540 (Percentage of Control)” value in the test with S. aureus was 89 Percentage of Control.

Consider potassium bisulfite, for which the “OD540 (Percentage of Control)” value with S. aureus is 91 Percentage of Control.

In the case of beta-mercaptoethanol, the “OD540 (Percentage of Control)” value in the test with S. aureus is reported as 93 Percentage of Control.

On to sodium bisulfite, for which the “OD540 (Percentage of Control)” value in the test with S. aureus is 64 Percentage of Control.

For the compound `CCCCCCCCCCCC(=O)OCCOCCOCCOCCOCCOCCOCCOCCOCCOCCOCCOCCOCCOCCOCCOCCOCCOCCOCCOCCOCC(OCCOCCOCCOCCOCCOCCOCCOCCOCCOCCOCCOCCOCCOCCOCCOCCOCCOCCOCCOCCO)C1OCC(OCCOCCOCCOCCOCCOCCOCCOCCOCCOCCOCCOCCOCCOCCOCCOCCOCCOCCOCCOCCO)C1OCCOCCOCCOCCOCCOCCOCCOCCOCCOCCOCCOCCOCCOCCOCCOCCOCCOCCOCCOCCO` (centres unmarked) [Polysorbate 20], the “growth of P. bivia” value in the test with Prevotella bivia is reported as “suppressed”. In test [2], the “growth of P. anaerobius” value is given as “suppressed”.
